Source: patent US7553841B2, “Amino cyclobutylamide modulators of chemokine receptor activity” (Merck & Co., Inc., priority 2003, dated 2009)

system: chemokine receptor; experiment: activity of separated cis/trans isomers (test not described); conditions: cis versus trans isomer of the same example, separated by chromatography; values not given

Row | SMILES | relative activity of the separated isomers
1 | C[C@H]1CN(C2CC(C(=O)NCc3cc(C(F)(F)F)cc(C(F)(F)F)c3)C2)CC[C@@]12C=Cc1ccccc12 (stereo partly drawn) [Example 1 cis isomer] | more active isomer
2 | CN(C1CCOCC1)C1CC(C(=O)NCc2cc(C(F)(F)F)cc(C(F)(F)F)c2)(c2ccccc2)C1 (stereo not drawn) [Example 41 cis isomer] | more active isomer
3 | CN(C1CCOCC1)C1CC(C(=O)NCc2cc(F)cc(C(F)(F)F)c2)(c2ccccc2)C1 (stereo not drawn) [Example 42 trans isomer] | active isomer
4 | C[C@H]1CN(C2CC(C)(C(=O)NCc3cc(C(F)(F)F)cc(C(F)(F)F)c3)C2)CC[C@@]12C=Cc1ccccc12 (stereo partly drawn) [Example 54 cis isomer] | more active isomer
5 | C[C@H]1CN(C2CC(CNC(=O)c3cc(C(F)(F)F)cc(C(F)(F)F)c3)(c3ccccc3)C2)CC[C@@]12C=Cc1ccccc12 (stereo partly drawn) [Example 43 cis isomer] | active isomer
6 | CC(O)[C@]1(C(=O)NCc2cncc(C(F)(F)F)c2)C[C@@H](N2CC[C@@]3(C=Cc4ccccc43)[C@@H](C)C2)C1 (mixture of isomers) [Example 122 cis isomer] | more active isomer
